Test results reported in patent publication EP1670820B1, “ANTIGENS FOR AN EAST COAST FEVER VACCINE” (International Livestock Research Institute ( ILRI), priority 2003, dated 2005).

Test system: peptide pulsed autologous iSF
Test: 51Chromium release assay: CTL lysis of peptide pulsed autologous iSF
Type: cell-based, cattle
Details: autologous iSF pulsed overnight with peptide; BW014 polyclonal CD8+ CTL line (FIG. 9)

## SLVCVLMKC [Tp2 peptide 76B]
  lysis of iSF pulsed with peptide: background levels of lysis
